In PMC10794144, “A novel antibiotic class targeting the lipopolysaccharide transporter” (Nature, 2024):
In brackets after ≈: the same amount, converted by molar mass.

Assays:
[1] = system: E. coli ATCC 25922; assay: microbe, parasite or virus in culture; settings: for RO7223280 MIC 100%: E. coli ATCC 25922, read at 100%
How it was run: (§1)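 Broth microdilution per CLSI M07/M100, with inocula diluted from a 0.5 McFarland suspension in CAMHB, or LB for A. baylyi. MIC was read as the lowest concentration inhibiting growth by eye or beyond which OD600 stopped decreasing.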

[2] = system: A. baumannii; assay: microbe, parasite or virus in culture; settings: for RO7223280 MIC 80%: read at 80%; for RO7223280 MIC 100%: read at 100%
How it was run: as §1

[3] = A. baumannii ATCC 17978, Study LGC308175
[4] = A. baumannii ATCC 19606, Study LGC296813
[5] = A. baumannii ATCC 19606, Study LGC299544
[6] = A. baumannii ATCC 19606, Study LGC308175
[7] = A. baumannii ROB08701, Study LGC296813
[8] = A. baumannii ROB08701, Study LGC299544
[9] = A. baumannii ROB08701, Study LGC308175
[10] = A. baumannii ROB08702, Study LGC296813
[11] = A. baumannii ROB08702, Study LGC299544
[12] = A. baumannii ROB08702, Study LGC308175
[13] = A. baumannii ROB08703, Study LGC296813
[14] = A. baumannii ROB08703, Study LGC299544
[15] = A. baumannii ROB08703, Study LGC308175
[16] = A. baumannii ROB08704, Study LGC296813
[17] = A. baumannii ROB08704, Study LGC299544
[18] = A. baumannii ROB08704, Study LGC308175
[19] = A. baumannii ROB08705, Study LGC296813
[20] = A. baumannii ROB08705, Study LGC299544
[21] = A. baumannii ROB08705, Study LGC308175
[22] = A. baumannii ROB08706, Study LGC296813
[23] = A. baumannii ROB08706, Study LGC299544
[24] = A. baumannii ROB08706, Study LGC308175
[25] = A. baumannii ROB08707, Study LGC296813
[26] = A. baumannii ROB08707, Study LGC299544
[27] = A. baumannii ROB08707, Study LGC308175
[28] = A. baumannii ROB08708, Study LGC296813
[29] = A. baumannii ROB08708, Study LGC299544
[30] = A. baumannii ROB08708, Study LGC308175
[31] = A. baumannii ROB08709, Study LGC296813
[32] = A. baumannii ROB08709, Study LGC299544
[33] = A. baumannii ROB08709, Study LGC308175
[34] = A. baumannii ROB08710, Study LGC296813
[35] = A. baumannii ROB08710, Study LGC299544
[36] = A. baumannii ROB08710, Study LGC308175

CN1C(=O)[C@H](CCCCN)NC(=O)[C@H](CCCN)NCc2cccnc2Sc2cccc(-c3ccc(C(=O)O)cc3)c2CNC(=O)[C@@H]1Cc1c[nH]c2ccccc12 [zosurabalpin]
RO7223280 MIC 100% ([1]; Study LGC296813): >64 µg/mL | RO7223280 MIC 100% ([1]; Study LGC299544): >64 µg/mL | RO7223280 MIC 100% ([1]; Study LGC308175): >64 µg/mL | MIC ([1]; Escherichia coli, ATCC25922): > 64 µg/mL | MIC range ([2]; 10 MDR isolates, CAMHB, MCPs read at 80% growth inhibition): 0.12 to 1 µg/mL | RO7223280 MIC 80% [2, 3]: ≤0.06 µg/mL | RO7223280 MIC 100% [2, 3]: 0.12 µg/mL | RO7223280 MIC 80% [2, 4]: 0.25 µg/mL | RO7223280 MIC 100% [2, 4]: 0.25 µg/mL | RO7223280 MIC 80% [2, 5]: 0.25 µg/mL | RO7223280 MIC 100% [2, 5]: 0.25 µg/mL | RO7223280 MIC 80% [2, 6]: 0.25 µg/mL | RO7223280 MIC 100% [2, 6]: 0.25 µg/mL | RO7223280 MIC 80% [2, 7]: 0.25 µg/mL | RO7223280 MIC 100% [2, 7]: 0.25 µg/mL | RO7223280 MIC 80% [2, 8]: 0.12 µg/mL | RO7223280 MIC 100% [2, 8]: 0.5 µg/mL | RO7223280 MIC 80% [2, 9]: 0.25 µg/mL | RO7223280 MIC 100% [2, 9]: 0.25 µg/mL | RO7223280 MIC 80% [2, 10]: 0.25 µg/mL | RO7223280 MIC 100% [2, 10]: 0.25 µg/mL | RO7223280 MIC 80% [2, 11]: 0.25 µg/mL | RO7223280 MIC 100% [2, 11]: >64 µg/mL | RO7223280 MIC 80% [2, 12]: 0.25 µg/mL | RO7223280 MIC 100% [2, 12]: >64 µg/mL | RO7223280 MIC 80% [2, 13]: 0.25 µg/mL | RO7223280 MIC 100% [2, 13]: 0.5 µg/mL | RO7223280 MIC 80% [2, 14]: 0.25 µg/mL | RO7223280 MIC 100% [2, 14]: 0.5 µg/mL | RO7223280 MIC 80% [2, 15]: 0.5 µg/mL | RO7223280 MIC 100% [2, 15]: 0.5 µg/mL | RO7223280 MIC 80% [2, 16]: 0.25 µg/mL | RO7223280 MIC 100% [2, 16]: 0.5 µg/mL | RO7223280 MIC 80% [2, 17]: 0.25 µg/mL | RO7223280 MIC 100% [2, 17]: 1 µg/mL | RO7223280 MIC 80% [2, 18]: 0.5 µg/mL | RO7223280 MIC 100% [2, 18]: 0.5 µg/mL | RO7223280 MIC 80% [2, 19]: 0.25 µg/mL | RO7223280 MIC 100% [2, 19]: 0.25 µg/mL | RO7223280 MIC 80% [2, 20]: 0.12 µg/mL | RO7223280 MIC 100% [2, 20]: 0.12 µg/mL | RO7223280 MIC 80% [2, 21]: ≤0.06 µg/mL | RO7223280 MIC 100% [2, 21]: 0.12 µg/mL | RO7223280 MIC 80% [2, 22]: 1 µg/mL | RO7223280 MIC 100% [2, 22]: 1 µg/mL | RO7223280 MIC 80% [2, 23]: 1 µg/mL | RO7223280 MIC 100% [2, 23]: >64 µg/mL | RO7223280 MIC 80% [2, 24]: 2 µg/mL | RO7223280 MIC 100% [2, 24]: >64 µg/mL | RO7223280 MIC 80% [2, 25]: 0.25 µg/mL | RO7223280 MIC 100% [2, 25]: 0.25 µg/mL | RO7223280 MIC 80% [2, 26]: 0.12 µg/mL | RO7223280 MIC 100% [2, 26]: 0.12 µg/mL | RO7223280 MIC 80% [2, 27]: 0.12 µg/mL | RO7223280 MIC 100% [2, 27]: 0.12 µg/mL | RO7223280 MIC 80% [2, 28]: 0.25 µg/mL | RO7223280 MIC 100% [2, 28]: 0.25 µg/mL | RO7223280 MIC 80% [2, 29]: 0.12 µg/mL | RO7223280 MIC 100% [2, 29]: >64 µg/mL | RO7223280 MIC 80% [2, 30]: 0.12 µg/mL | RO7223280 MIC 100% [2, 30]: >64 µg/mL | RO7223280 MIC 80% [2, 31]: 0.25 µg/mL | RO7223280 MIC 100% [2, 31]: 0.25 µg/mL | RO7223280 MIC 80% [2, 32]: 0.25 µg/mL | RO7223280 MIC 100% [2, 32]: >64 µg/mL | RO7223280 MIC 80% [2, 33]: 0.25 µg/mL | RO7223280 MIC 100% [2, 33]: >64 µg/mL | RO7223280 MIC 80% [2, 34]: 0.25 µg/mL | RO7223280 MIC 100% [2, 34]: >64 µg/mL | RO7223280 MIC 80% [2, 35]: 0.25 µg/mL | RO7223280 MIC 100% [2, 35]: >64 µg/mL | RO7223280 MIC 80% [2, 36]: 0.25 µg/mL | RO7223280 MIC 100% [2, 36]: >64 µg/mL | MIC90 ([2]; Acinetobacter baumannii, 10 MDR isolates, CAMHB, MCPs read at 80% growth inhibition): 0.25 µg/mL (≈ 0.316 µM) | MIC ([2]; Acinetobacter baumannii, ACC00445, CAMHB, MCPs read at 80% inhibition): 0.12 µg/mL (≈ 0.152 µM) | MIC ([2]; Acinetobacter baumannii, ACC00535, CAMHB, MCPs read at 80% inhibition): 0.12 µg/mL (≈ 0.152 µM) | MIC ([2]; Acinetobacter baumannii, ACC01073, CAMHB, MCPs read at 80% inhibition): 1 µg/mL (≈ 1.26 µM) | MIC ([2]; Acinetobacter baumannii, ACC01077, CAMHB, MCPs read at 80% inhibition): 0.12 µg/mL (≈ 0.152 µM) | MIC ([2]; Acinetobacter baumannii, ACC01085 / AR0307, CAMHB, MCPs read at 80% inhibition): 0.5 µg/mL (≈ 0.632 µM) | MIC ([2]; Acinetobacter baumannii, ATCC17978, ATCC 17978, CAMHB, MCPs read at 80% inhibition): ≤ 0.06 µg/mL | MIC ([2]; Acinetobacter baumannii, ATCC17978, ATCC 17978, CAMHB, one replicate, MCPs read at 80% growth inhibition): ≤ 0.06 µg/mL | MIC ([2]; Acinetobacter baumannii, ATCC19606, ATCC 19606, CAMHB, MCPs read at 80% growth inhibition): 0.25 µg/mL (≈ 0.316 µM) | MIC ([2]; Acinetobacter baumannii, ATCC19606, ATCC 19606, CAMHB, MCPs read at 80% inhibition): 0.12 µg/mL (≈ 0.152 µM) | MIC ([2]; Acinetobacter baumannii, ATCCBAA747, ATCC BAA-747, CAMHB, MCPs read at 80% inhibition): ≤ 0.06 µg/mL | MIC ([2]; Acinetobacter baumannii, ROB08701, CAMHB, MCPs read at 80% inhibition): 0.25 µg/mL (≈ 0.316 µM) | MIC ([2]; Acinetobacter baumannii, ROB08702, CAMHB, MCPs read at 80% inhibition): 0.12 µg/mL (≈ 0.152 µM) | MIC ([2]; Acinetobacter baumannii, ROB08703, CAMHB, MCPs read at 80% inhibition): 0.5 µg/mL (≈ 0.632 µM) | MIC ([2]; Acinetobacter baumannii, ROB08704, CAMHB, MCPs read at 80% inhibition): 0.25 µg/mL (≈ 0.316 µM) | MIC ([2]; Acinetobacter baumannii, ROB08705, CAMHB, MCPs read at 80% inhibition): 0.25 µg/mL (≈ 0.316 µM) | MIC ([2]; Acinetobacter baumannii, ROB08706, CAMHB, MCPs read at 80% inhibition): 0.5 µg/mL (≈ 0.632 µM) | MIC ([2]; Acinetobacter baumannii, ROB08707, CAMHB, MCPs read at 80% inhibition): ≤ 0.06 µg/mL | MIC ([2]; Acinetobacter baumannii, ROB08708, CAMHB, MCPs read at 80% inhibition): 0.12 µg/mL (≈ 0.152 µM) | MIC ([2]; Acinetobacter baumannii, ROB08709, CAMHB, MCPs read at 80% inhibition): ≤ 0.06 µg/mL | MIC ([2]; Acinetobacter baumannii, ROB08710, CAMHB, MCPs read at 80% inhibition): 0.12 µg/mL (≈ 0.152 µM)
